Experiments:
GRdEcR/RXR = target: T1, GRdEcR/RXR (Drosophila melanogaster, UniProt P34021, E261P/P331L/Q260P/V259R); test: GRdEcR (GEcEc) chimera with RXR, (EcRE)5-ΔMTV reporter in CHO cells; type: cell-based
T1 construct: ligation of a Not I-Bam HI fragment containing the DBD and LBD of a modified EcR cDNA, EcRnx; expressed in transfected cells; host or cells: CHO
T1 sequence (P34021 259-878 V259R/Q260P/E261P/P331L limits assumed): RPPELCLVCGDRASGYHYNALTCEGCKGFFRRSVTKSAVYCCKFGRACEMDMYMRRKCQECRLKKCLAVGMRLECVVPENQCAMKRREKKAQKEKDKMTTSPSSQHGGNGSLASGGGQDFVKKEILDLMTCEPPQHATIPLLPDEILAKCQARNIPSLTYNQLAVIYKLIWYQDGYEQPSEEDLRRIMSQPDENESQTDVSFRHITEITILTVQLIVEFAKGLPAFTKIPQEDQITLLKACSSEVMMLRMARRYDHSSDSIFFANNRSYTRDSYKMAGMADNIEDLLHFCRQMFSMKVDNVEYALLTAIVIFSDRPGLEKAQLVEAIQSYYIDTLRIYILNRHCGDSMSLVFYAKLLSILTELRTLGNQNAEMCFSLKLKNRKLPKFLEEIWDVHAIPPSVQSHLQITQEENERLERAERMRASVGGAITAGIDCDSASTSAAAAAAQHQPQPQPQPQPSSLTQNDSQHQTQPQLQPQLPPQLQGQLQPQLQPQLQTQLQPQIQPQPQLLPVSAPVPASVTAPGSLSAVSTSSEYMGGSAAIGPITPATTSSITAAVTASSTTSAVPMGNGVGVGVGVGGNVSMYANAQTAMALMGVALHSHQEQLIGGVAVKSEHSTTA
T1 sequence (P28700 1-467 partner): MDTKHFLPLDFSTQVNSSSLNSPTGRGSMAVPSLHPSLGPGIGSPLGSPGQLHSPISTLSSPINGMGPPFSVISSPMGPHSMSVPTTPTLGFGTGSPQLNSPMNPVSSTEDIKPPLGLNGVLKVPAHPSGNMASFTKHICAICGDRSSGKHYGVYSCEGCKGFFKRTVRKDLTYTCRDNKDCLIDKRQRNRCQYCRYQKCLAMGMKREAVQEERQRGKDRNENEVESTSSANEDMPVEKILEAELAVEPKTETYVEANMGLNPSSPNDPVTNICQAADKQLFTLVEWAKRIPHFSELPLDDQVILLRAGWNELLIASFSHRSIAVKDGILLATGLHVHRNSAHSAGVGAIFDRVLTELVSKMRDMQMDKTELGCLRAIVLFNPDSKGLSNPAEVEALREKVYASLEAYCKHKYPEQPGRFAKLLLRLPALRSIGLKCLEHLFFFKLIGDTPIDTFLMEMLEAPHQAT
Procedure: (§1) These experiments employed a mammalian cell culture system using Chinese hamster ovary cells (CHO) to evaluate the transcriptional function of Drosophila melanogaster EcR and USP using methods described previously (U.S. Patent Application Publication No: 2005/0049230; Henrich et al, 2003). Cells were seeded in 6-well polypropylene culture plates (Falcon) with 10^5 cells per well on the day prior to transfection. Transfection was subsequently performed using either calcium phosphate (Kitareewan et al., 1996, Mol. Biol. Cell, 7:1153-1196) or a GenePorter reagent (Gene Therapy Systems, Inc; San Diego, Calif.) following manufacturer's protocols. Each well received 1.25 μg of (EcRE)5-ΔMTV-CAT (five copies of the hsp27 EcRE inserted into an mouse mammary tumor virus (MTV) promoter upstream of the chloramphenicol acetyltransferase (CAT) gene) or (EcRE)5-ΔMTV-LUC (the same promoter attached to firefly luciferase), 1.25 μg of pCH111 (SV40 early promoter linked to the β-galactosidase gene) to normalize CAT activity, and 0.25 μg of each expression plasmid (EcR, FXR, RXR, USP) that was tested. The cells were incubated with plasmid DNA for seven hours and then washed with 1×PBS. Muristerone A (murA; Alexis Biochemicals) or 20-hydroxyecdysone (20E; Sigma) dissolved in ethanol to a concentration of 10 mM was diluted as necessary to the final assay concentration (FAC) in 2 ml of fresh incubation medium that was then applied to the cells. Similarly, JHIII (Sigma) was dissolved in dimethyl sulfoxide (DMSO) to a concentration of […] and diluted into the incubation medium to its final assay concentration (20, 40, 80, 160 μM). […] A corresponding volume of ethanol and DMSO were added to control cells for all experiments. For all experiments, the cells were allowed to incubate with the medium for 24 hours before collection and cell lysates were prepared by described methods (Kitareewan et al., 1996). Both β-galactosidase and CAT reporter activity were measured based on previously used methods (Kitareewan et al, 1996). Luciferase assays using luciferrin followed the specifications of the manufacturer.
(§2) Transcriptional activity, measured as ^14C-chloramphenicol counts (for measuring CAT activity) or relative luciferase activity (RLU) was quantified for each cell lysate. The counts were then normalized by adjusting for differences in β-galactosidase activity, since β-galactosidase expression is controlled by a constitutive promoter and provides an estimate of cell mass. Data were normalized as fold-induction based on differences in reporter gene activity between hormonally treated and control cells.
In an initial series of studies, a GRdEcR chimera that consists of the rat glucocorticoid receptor (GR) activation domain attached to the EcR DBD and LBD (FIG. 1) was cotransfected along with mRXRα into CHO cells. The response of transfected cells to murA was measured using a (EcRE)5-ΔMTV-CAT reporter plasmid that carries five tandem repeats of the hsp27 EcRE linked to the MTV (mouse mammary tumor virus) promoter and the chloramphenicol acetyltransferase gene (CAT).
The prominent candidate for this JH-responsive macromolecule in insects is the structurally-related ecdysone receptor (EcR). Like FXR, EcR heterodimerizes with RXR and binds to the hsp27 ecdysone-responsive DNA element (Forman et al., 1995), but distinctively activates transcription in response to muristerone A (MurA or MUR), a synthetic ecdysone (Yao et al., 1992). […] In the experiments shown in FIG. 15A, muristerone A (MUR) was added at the indicated doses in ethanol vehicle, and increasing amounts of JH III (12, 25, or 50 μM) were added (underlying triangles). Numbers over bars indicate the ratio of the GEcEc-dependent activity produced by 50 μM JH III in the presence of the indicated dose of MUR to the activity produced by MUR alone. Relative light units (RLU) from firefly luciferase in cell lysates are expressed relative to renilla luciferase (Promega).

FXR = target: T2, FXR (Rattus norvegicus, UniProt Q62735); test: cell-based
T2 sequence (Q62735 1-469): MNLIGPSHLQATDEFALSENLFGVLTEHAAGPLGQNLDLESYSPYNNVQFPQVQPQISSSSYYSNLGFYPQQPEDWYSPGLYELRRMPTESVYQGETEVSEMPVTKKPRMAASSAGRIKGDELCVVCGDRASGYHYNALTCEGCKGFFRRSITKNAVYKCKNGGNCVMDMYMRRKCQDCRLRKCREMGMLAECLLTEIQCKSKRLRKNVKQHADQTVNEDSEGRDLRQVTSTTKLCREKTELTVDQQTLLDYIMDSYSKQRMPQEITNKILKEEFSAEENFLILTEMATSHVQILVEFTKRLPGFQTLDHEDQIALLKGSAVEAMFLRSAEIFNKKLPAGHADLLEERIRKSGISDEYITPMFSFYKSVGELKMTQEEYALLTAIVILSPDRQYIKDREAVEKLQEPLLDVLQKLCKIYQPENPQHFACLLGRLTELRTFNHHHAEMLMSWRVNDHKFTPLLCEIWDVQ
T2 sequence (P28700 1-467 partner): T1 sequence (P28700 1-467 partner)
Procedure: as §1, §2
In these experiments, candidate juvenoids were tested for their ability to activate FXR mediated transcription by transfecting Chinese hamster ovary (CHO) cells using the FXR plasmid, mouse RXRα, and the ΔMTV-(EcRE)5-CAT reporter as described herein. An RXR-dependent CRBPII-CAT reporter plasmid was employed in parallel assays to discern activators specific for this receptor.

insect = conditions: from Schneiderman and Gilbert, Science 143; cited from earlier work
[1] = final dose of 50 ∝M, 1 = induction less than 2-fold below cytotoxic doses
[2] = dose 100 μM, 1 = no increase over vehicle

Question: For C[C@H](CCC(=O)O)[C@H]1CC[C@H]2[C@@H]3[C@H](O)C[C@@H]4C[C@H](O)CC[C@]4(C)[C@H]3CC[C@]12C [CDCA, chenodeoxycholic acid], which “induction of GEcEc” value (GRdEcR/RXR; data not shown) is on record?
Answer: did not induce

Question: What does the source list for CC(C)=CCCC(C)=CCCC(C)=CC=O [farnesal]?
Answer: FXR-dependent CAT activity, induction (FXR; 50 μM): 2 fold; FXR ACTIVITY (fold-induction) (FXR; [1]): 2 fold-induction; JH ACTIVITY (units/g) (insect): 32 units/g

Question: For CC(C)=CCC/C(C)=C/CC/C(C)=C/CO [farnesol, all-trans farnesol], which “increase in GEcEc activity over that provided by MUR alone” value (GRdEcR/RXR; 45 μM farnesol with MUR) is on record?
Answer: 4 fold

Question: And the “JH ACTIVITY (units/g)” value (insect)?
Answer: 140 units/g

Question: With CC(=O)OCC=C(C)CCC=C(C)CCC=C(C)C [farnesyl acetate] as the molecule, how does the “JH ACTIVITY (units/g)” value (insect) read?
Answer: 5.4 units/g

Question: Which “FXR-dependent activity, induction” value (FXR; dose not stated) does the source give for CC(C)=CCC/C(C)=C/CO [geraniol] here?
Answer: neither the monoterpenes linalool (200 μM) nor geraniol were effective

Question: And the “FXR ACTIVITY (fold-induction)” value (FXR; [1])?
Answer: 1 fold-induction

Question: What about the “JH ACTIVITY (units/g)” value (insect) of the same molecule?
Answer: 0 units/g

Question: Which “JH ACTIVITY (units/g)” value (insect) does the source give for CC(C)CCCC(C)CCCC(C)CCO (centres unmarked) [hexahydrofarnesol] here?
Answer: 0 units/g

Question: With C=CC(C)(O)CCCC(C)CCCC(C)CCCC(C)C (centres unmarked) [isophytol] as the molecule, how does the “JH ACTIVITY (units/g)” value (insect) read?
Answer: 0 units/g

Question: For C=CC(C)(O)CCC=C(C)C (centres unmarked) [linalool], which “JH ACTIVITY (units/g)” value (insect) is on record?
Answer: 0.08 units/g

Question: Which “FXR-dependent CAT activity, induction” value (FXR; 50 μM) does the source give for C/C(=C\CO)CCC[C@H](C)CCC[C@H](C)CCCC(C)C [phytol] here?
Answer: three times

Question: What about the “FXR ACTIVITY (fold-induction)” value (FXR; [1]) of the same molecule?
Answer: 3 fold-induction

Question: And the “JH ACTIVITY (units/g)” value (insect)?
Answer: 32 units/g

Question: What does the source list for c1cc2c(cc1[C@H]1OC[C@H]3[C@@H]1CO[C@@H]3c1ccc3c(c1)OCO3)OCO2 [sesamin]?
Answer: FXR-dependent activity, induction (FXR; 100 μM): 12 fold; FXR ACTIVITY (fold-induction) (FXR; [2]): 12 fold-induction; potentiation of MUR-inducible GEcEc-dependent activity (GRdEcR/RXR; 25 μM test compound, 0.2 μM muristerone A): between two and four times

Question: Which “FXR-dependent CAT activity, induction” value (FXR; 50 μM) does the source give for COc1cc(C2Oc3cc([C@H]4Oc5cc(O)cc(O)c5C(=O)[C@@H]4O)ccc3OC2CO)ccc1O (some centres unmarked) [silybin] here?
Answer: 18 fold

Question: And the “FXR ACTIVITY (fold-induction)” value (FXR; [2])?
Answer: 10 fold-induction

Question: Which “JH ACTIVITY (units/g)” value (insect) does the source give for CC(C)=CCC/C(C)=C/CC/C(C)=C/CC/C(C)=C/CC/C(C)=C/CC/C(C)=C/CC/C(C)=C/CC/C(C)=C/CC/C(C)=C/CO [solanesol] here?
Answer: 0.05 units/g

Question: For COc1ccc(-c2cc(=O)c3c(OC)c(OC)c(OC)c(OC)c3o2)cc1 [tangeretin], which “FXR-dependent CAT activity, induction” value (FXR; 50 μM) is on record?
Answer: 4 fold

Question: Which “FXR-dependent CAT activity, induction” value (FXR; 50 μM) does the source give for O=C1c2c(O)cc(O)cc2O[C@H](c2ccc(O)c(O)c2)[C@H]1O [taxifolin] here?
Answer: unresponsive

Question: For Clc1cc2c(cc1Cl)Oc1cc(Cl)c(Cl)cc1O2 [tetrachloro- dibenzo-p- dioxin, 2,3,7,8-tetrachlorodibenzo-p-dioxin], which “FXR-dependent CAT activity, induction” value (FXR; 100 nM) is on record?
Answer: 15 fold

Question: And the “FXR ACTIVITY (fold-induction)” value (FXR; dose 0.1 μM)?
Answer: 15 fold-induction

Question: Which “FXR-dependent activity, induction” value (FXR; dose not stated) does the source give for Cn1cnc2c1c(=O)[nH]c(=O)n2C [theobromine] here?
Answer: ineffective

Question: With O=c1[nH]c(=O)c2[nH]cnc2[nH]1 [xanthine] as the molecule, how does the “FXR-dependent activity, induction” value (FXR; dose not stated) read?
Answer: ineffective

Question: For CC(=O)/C=C/C1C(C)=CCCC1(C)C (stereo not drawn) [α-ionone], which “FXR ACTIVITY (fold-induction)” value (FXR; dose 150 μM) is on record?
Answer: 10 fold-induction

Question: Which results are given for CC1=CCC(C(C)(C)O)CC1 (stereo not drawn) [α-terpineol]?
Answer: FXR-dependent activity, induction (FXR; 800 μM): two-fold; FXR ACTIVITY (fold-induction) (FXR; dose 400 μM): 402 fold-induction

Question: Which “FXR-dependent activity, induction” value (FXR; 25 μM) does the source give for C[C@H]1[C@H](C)CC[C@]2(C)CC[C@]3(C)C(=CC[C@@H]4[C@@]5(C)CC[C@@H](O)[C@](C)(C(=O)O)[C@@H]5CC[C@]43C)[C@H]12 [β-boswellic acid] here?
Answer: 11 fold

Question: And the “FXR ACTIVITY (fold-induction)” value (FXR; dose 25 μM)?
Answer: 11 fold-induction

Question: Which “FXR ACTIVITY (fold-induction)” value (FXR; dose 150 μM) does the source give for CC(=O)/C=C/C1=C(C)CCCC1(C)C [β-ionone] here?
Answer: 10 fold-induction

Question: With CC(C)=CCC/C(C)=C/CC/C(C)=C/CC[C@]1(C)CCc2cc(O)c(C)c(C)c2O1 [γ-tocotrienol] as the molecule, how does the “FXR ACTIVITY (fold-induction)” value (FXR; dose 20 μM, 1 = no increase over vehicle) read?
Answer: 1 fold-induction

Question: Which “FXR-dependent CAT activity, induction” value (FXR; 5 μM) does the source give for aroclor 1254 here?
Answer: 5 fold

Question: For geranyl linalool, which “JH ACTIVITY (units/g)” value (insect) is on record?
Answer: 0.14 units/g

Question: With toxaphenes as the molecule, how does the “FXR-dependent CAT activity, induction” value (FXR; 5 μM) read?
Answer: 9 fold

— patent US8637237B2, “Methods, compositions, and systems for the identification of species-specific or developmental stage-specific insecticides” (The University of North Carolina at Greensboro, priority 2003, dated 2014)
